These results are taken from publication PMC2841792 (Journal of medicinal chemistry, 2010).

The subject of one series is neuron. The following applies: not told; cited from earlier work.
Series [1] deals with T1, BoNT/A LC (Clostridium botulinum, UniProt P0DPI0). Nature of the series: biochemical. The series is classed as biochemical.
The next series deals with T2, human MMP-1 (Homo sapiens, UniProt P03956).
T2 sequence (P03956 100-469): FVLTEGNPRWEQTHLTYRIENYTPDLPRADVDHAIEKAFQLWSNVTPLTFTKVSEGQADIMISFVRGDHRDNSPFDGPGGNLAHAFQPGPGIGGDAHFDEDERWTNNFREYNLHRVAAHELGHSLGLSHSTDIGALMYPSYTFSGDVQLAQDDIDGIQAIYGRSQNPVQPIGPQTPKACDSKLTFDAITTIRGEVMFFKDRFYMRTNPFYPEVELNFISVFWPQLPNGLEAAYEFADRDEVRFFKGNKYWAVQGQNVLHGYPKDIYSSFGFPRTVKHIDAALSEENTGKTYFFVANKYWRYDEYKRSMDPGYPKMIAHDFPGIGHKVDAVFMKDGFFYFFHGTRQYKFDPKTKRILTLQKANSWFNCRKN
Format: biochemical.

For a further series, the target named is MMP-9 (Homo sapiens, UniProt P14780). Format: biochemical.
Sequence of MMP-9 (P14780 94-707): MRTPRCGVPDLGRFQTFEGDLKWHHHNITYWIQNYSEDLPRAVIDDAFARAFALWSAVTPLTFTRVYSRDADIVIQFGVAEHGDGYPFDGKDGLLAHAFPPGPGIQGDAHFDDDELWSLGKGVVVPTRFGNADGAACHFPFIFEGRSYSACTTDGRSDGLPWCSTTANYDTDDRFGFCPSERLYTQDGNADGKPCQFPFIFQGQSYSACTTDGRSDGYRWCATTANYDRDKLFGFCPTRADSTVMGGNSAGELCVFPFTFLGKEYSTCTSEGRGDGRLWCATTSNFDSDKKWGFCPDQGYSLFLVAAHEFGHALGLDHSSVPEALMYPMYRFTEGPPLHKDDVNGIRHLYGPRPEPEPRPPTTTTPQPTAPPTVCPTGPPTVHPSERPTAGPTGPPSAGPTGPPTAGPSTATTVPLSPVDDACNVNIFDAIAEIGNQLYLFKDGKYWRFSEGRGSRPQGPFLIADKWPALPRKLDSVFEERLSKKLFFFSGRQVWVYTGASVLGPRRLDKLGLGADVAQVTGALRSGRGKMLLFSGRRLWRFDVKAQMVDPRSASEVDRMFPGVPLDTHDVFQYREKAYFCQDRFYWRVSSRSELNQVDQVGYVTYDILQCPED
In another series the test system is chick neuronal assay. The series is classed as cell-based.
A further series addresses BoNT/B LC (Clostridium botulinum, UniProt P10844). Format: biochemical.
In series [2] the target is anthrax lethal factor (LF) (Bacillus anthracis, UniProt P15917). In words: biochemical.
Sequence of anthrax lethal factor (LF) (P15917 34-809 limits assumed): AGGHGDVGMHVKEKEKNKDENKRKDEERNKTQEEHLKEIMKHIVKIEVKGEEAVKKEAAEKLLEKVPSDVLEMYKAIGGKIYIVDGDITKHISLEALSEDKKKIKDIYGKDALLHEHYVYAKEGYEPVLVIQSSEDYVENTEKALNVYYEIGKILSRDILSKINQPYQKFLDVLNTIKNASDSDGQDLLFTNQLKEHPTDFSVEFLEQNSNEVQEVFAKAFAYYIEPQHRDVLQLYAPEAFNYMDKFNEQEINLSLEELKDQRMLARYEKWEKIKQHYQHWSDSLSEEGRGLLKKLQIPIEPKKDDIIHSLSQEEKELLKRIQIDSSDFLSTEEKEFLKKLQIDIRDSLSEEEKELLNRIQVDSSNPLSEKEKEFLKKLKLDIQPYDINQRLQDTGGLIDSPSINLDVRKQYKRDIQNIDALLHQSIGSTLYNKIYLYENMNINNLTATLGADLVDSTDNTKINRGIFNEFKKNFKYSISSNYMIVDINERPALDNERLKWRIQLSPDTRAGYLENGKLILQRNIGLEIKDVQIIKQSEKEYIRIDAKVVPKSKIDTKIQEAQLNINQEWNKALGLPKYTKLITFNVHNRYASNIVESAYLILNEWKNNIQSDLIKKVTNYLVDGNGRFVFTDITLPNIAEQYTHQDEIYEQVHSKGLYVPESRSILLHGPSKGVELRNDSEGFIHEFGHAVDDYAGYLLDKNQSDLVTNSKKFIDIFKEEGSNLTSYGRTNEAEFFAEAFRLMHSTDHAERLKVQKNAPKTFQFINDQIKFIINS
Series [3] concerns the target T1, BoNT/A LC. In words: biochemical.

“Also recorded” adds a separate entry of the source. Structures can show the parent of a compound that is named as a salt. Where two headings read alike, the source gives them in different places. Some results are limits rather than exact numbers.

Usually IC50 stands for the concentration needed to halve the response being measured.

T1 sequence (P0DPI0 2-448 limits assumed): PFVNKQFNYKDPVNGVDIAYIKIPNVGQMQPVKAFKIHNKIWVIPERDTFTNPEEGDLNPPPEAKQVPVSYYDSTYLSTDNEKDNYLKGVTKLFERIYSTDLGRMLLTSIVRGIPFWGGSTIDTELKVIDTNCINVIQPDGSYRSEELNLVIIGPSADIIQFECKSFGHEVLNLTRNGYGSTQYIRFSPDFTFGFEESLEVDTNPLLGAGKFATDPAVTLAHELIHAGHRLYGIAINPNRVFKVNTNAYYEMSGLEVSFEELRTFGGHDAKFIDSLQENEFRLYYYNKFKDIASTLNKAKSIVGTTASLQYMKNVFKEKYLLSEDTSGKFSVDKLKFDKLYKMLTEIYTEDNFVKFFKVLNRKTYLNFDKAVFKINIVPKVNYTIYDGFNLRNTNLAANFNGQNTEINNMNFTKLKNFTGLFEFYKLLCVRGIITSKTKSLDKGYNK
Sequence of BoNT/B LC (P10844 2-441 limits assumed): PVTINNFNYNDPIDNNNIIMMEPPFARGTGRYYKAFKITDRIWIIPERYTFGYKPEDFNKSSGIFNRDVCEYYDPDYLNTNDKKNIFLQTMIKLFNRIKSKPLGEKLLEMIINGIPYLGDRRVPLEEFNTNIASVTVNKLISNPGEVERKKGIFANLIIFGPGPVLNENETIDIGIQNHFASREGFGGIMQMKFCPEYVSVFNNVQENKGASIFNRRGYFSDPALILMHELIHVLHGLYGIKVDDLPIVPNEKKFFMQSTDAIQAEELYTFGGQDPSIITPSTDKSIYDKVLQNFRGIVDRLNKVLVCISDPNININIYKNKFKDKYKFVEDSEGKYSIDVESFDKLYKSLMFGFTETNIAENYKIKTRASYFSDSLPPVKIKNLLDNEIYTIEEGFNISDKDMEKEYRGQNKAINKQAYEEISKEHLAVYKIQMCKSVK

Consider `Cl.Cl.N=C(N)c1ccc(Oc2ccc(-c3cc4ccc(C(=N)N)cc4[nH]3)cc2)cc1` [Compound 5], for which the neuron permeability entry in the series with neuron is reported as “neuron-permeable”.

For the molecule `N#Cc1ccc(Oc2ccc(-c3cc4ccc(C(=N)N)cc4[nH]3)cc2)cc1` [Compound 11, 2-(4-(4-Cyanophenoxy)phenyl)-1H-indole-6-carboximidamide hydrochloride salt], the “inhibitory activity against BoNT/A LC (in words)” value (from here on “inhibitory activity … (in words)”) on BoNT/A LC [1] is recorded as “no activity”.

As to `CN(C)CC/N=C(\N)c1ccc(Oc2ccc(-c3cc4ccc(/C(N)=N/CCN(C)C)cc4[nH]3)cc2)cc1` [Compound 12], the “inhibitory activity against human MMP-1” value on human MMP-1 is listed as “no inhibitory activities; also recorded: does not inhibit”. At MMP-9, the “inhibitory activity against MMP-9” value is reported as “no inhibitory activities; also recorded: does not inhibit”. Besides, in the series on chick neuronal assay, the “cellular activity in a chick neuronal assay” value was “showed cellular activity”. Further, on BoNT/A LC [1], the “dependence of inhibitory activity on Zn concentration” value was “independent of the Zn concentration” and the “fold more potent than the lead structure (compound 5) against BoNT/A LC” value was 4.4 fold. Also, on BoNT/B LC, the “inhibitory activity against BoNT/B” value was “no inhibitory activities; also recorded: does not inhibit”.

As to `OC1CN=C(c2ccc(Oc3ccc(-c4cc5ccc(C6=NCC(O)CN6)cc5[nH]4)cc3)cc2)NC1` (stereo not drawn) [Compound 15, 2-(4-(4-(6-(5-Hydroxy-1,4,5,6-tetrahydropyrimidin-2-yl)-1H-indol-2-yl)phenoxy)phenyl)-1,4,5,6-tetrahydropyrimidin-5-ol], the “selectivity for BoNT/A LC versus anthrax LF” value on BoNT/A LC [1] was “over ten-fold”.

For `N#Cc1ccc(Oc2ccc(-c3cc4ccc(C5=NCCN5)cc4[nH]3)cc2)c(Cl)c1` [Compound 24c, 2-(4-(2-Chloro-4-cyanophenoxy)phenyl)-6-(4,5-dihydro-1H-imidazol-2-yl)indole], at BoNT/A LC [1], the “fold less potent than bis-imidazoline 13 against BoNT/A LC” value is on record as 2.4 fold and the “inhibitory activity … (in words)” value is recorded as “maintain inhibitory activity”.

For `Clc1ccc(Oc2ccc(-c3cc4ccc(C5=NCCN5)cc4[nH]3)cc2)c(Cl)c1` [Compound 29, 2-(4-(2,4-Dichlorophenoxy)phenyl)-6-(4,5-dihydro-1H-imidazol-2-yl)-1H-indole], the “inhibitory activity … (in words)” value on BoNT/A LC [1] is “maintain inhibitory activity”.

Consider `N#Cc1ccc2cc(-c3ccc(F)cc3)[nH]c2c1` [Compound 39, 2-(4-Fluorophenyl)-1H-indole-6-carbonitrile], for which the IC50 (in series [2]; against BoNT/A LC [1]) was above 100 µM throughout.

With `NC(=O)c1ccc2cc(-c3ccc(F)cc3)[nH]c2c1` [Compound 40a, 2-(4-Fluorophenyl)-1H-indole-6-carboxamide], the IC50 (in series [2]; on BoNT/A LC [1]) was above 100 µM in each case.

`N=C(N)c1ccc2cc(-c3ccc(F)cc3)[nH]c2c1` [Compound 40b, 2-(4-Fluorophenyl)-1H-indole-6-carboximidamide]: the values for the IC50 (in series [2]; on BoNT/A LC [1]) were 48 µM and above 100 µM, respectively.

Consider `Fc1ccc(-c2cc3ccc(C4=NCCN4)cc3[nH]2)cc1` [Compound 40c, 6-(4,5-Dihydro-1H-imidazol-2-yl)-2-(4-fluorophenyl)-1H-indole], for which the results for the IC50 (in series [2]; against BoNT/A LC [1]) were 40 µM and above 100 µM, respectively.

Regarding `COc1ccc(-c2cc3ccc(C(N)=O)cc3[nH]2)cc1` [Compound 43a, 2-(4-Methoxyphenyl)-1H-indole-6-carboxamide], the IC50 (in series [2]; at BoNT/A LC [1]) was above 100 µM throughout.

With `COc1ccc(-c2cc3ccc(C(=N)N)cc3[nH]2)cc1` [Compound 43b, 2-(4-Methoxyphenyl)-1H-indole-6-carboximidamide], the IC50 (in series [2]; against BoNT/A LC [1]) was above 100 µM in each case.

Turning to `COc1ccc(-c2cc3ccc(C4=NCCN4)cc3[nH]2)cc1` [Compound 43c, 2-(4-Methoxyphenyl)-6-(4,5-dihydro-1H-imidazol-2-yl)-1H-indole], the IC50 in series [2] amounted to 61 µM; at BoNT/A LC [1] it was 45 µM.

With `c1cc(-c2cc3ccc(C4=NCCN4)cc3[nH]2)ccc1C1=NCCN1` [Compound 44a, 6-(4,5-Dihydro-1H-imidazol-2-yl)-2-(4-(4,5-dihydro-1H-imidazol-2-yl)phenyl)-1H-indole], the “inhibitory activity against human MMP-1” value at human MMP-1 was “no inhibitory activities”. Moreover, at MMP-9, the “inhibitory activity against MMP-9” value is recorded as “no inhibitory activities”. Also, at BoNT/B LC, the “inhibitory activity against BoNT/B” value is given as “no inhibitory activities”.

Take `c1cc(-c2cc3ccc(C4=NCCN4)cc3s2)ccc1C1=NCCN1` [Compound 46a, 2-(4-(6-(4,5-Dihydro-1H-imidazol-2-yl)benzo[b]thiophen-2-yl)phenyl)-4,5-dihydro-1H-imidazole]: the IC50 at BoNT/A LC [3] worked out at 28 µM.

Consider `NC(=O)c1ccc2cc(-c3ccc(F)cn3)sc2c1` [Compound 49, 2-(5-Fluoro-2-pyridyl)-6-benzo[b]thiophenecarboxamide], for which the IC50 (in series [2]; on BoNT/A LC [1]) was above 100 µM throughout.

For `NCCNc1ccc(-c2cc3ccc(C4=NCCN4)cc3s2)nc1` [Compound 50, N^1–(6-(6-(4,5-Dihydro-1H-imidazol-2-yl)benzo[b]thiophen-2-yl)pyridine-3-yl)ethane-1,2-diamine], in series [2], the IC50 was above 100 µM.
